In patent US20260124192A1, “COMPOUNDS, COMPOSITIONS, AND METHODS OF TREATING RNA VIRAL INFECTIONS” (priority 2024, published 2026):

Tested on: 13 viruses and variants
Test: organism not typed
Assay type: cell-based

Compound: Cc1c(-c2ccc(O)cc2)n(Cc2ccc(OCCN3CCCCC3)cc2)c2ccc(O)cc12 [Pipendoxifene]
- potency: submicromolar potency
